Measured values taken from US20260158017A1, “KIF18A INHIBITOR” (WIGEN BIOMEDICINE TECHNOLOGY (SHANGHAI) CO., LTD., priority 2021, published 2026).

Molecular target: T1, Recombinant human KIF18A (1-467His-tagged) protein (Homo sapiens, UniProt Q8NI77)
T1 construct: Recombinant human KIF18A (1-467His-tagged) protein; His; made in house
Assay: KIF18A enzyme assay (microtubule-stimulated ATPase activity, ADP-Glo)
Assay type: biochemical
Settings: 30 nM KIF18A, 75 μM ATP, 30 μg/mL pig microtubules; read-out: Inhibitory activity against KIF18A IC50
Method: In Vitro Assay of the Compounds of the Present Invention for Inhibiting Enzymatic Activity of KIF18A
KIF18A enzyme assay: The enzymatic activity of KIF18A after treatment with the compounds was measured by an assay of microtubule-stimulated ATPase activity. ADP generated from the ATPase reaction was measured in this assay. The compounds were serially diluted 2-fold in DMSO over a range of 22 concentration points. […] Concentrations of KIF18A protein, microtubules, and ATP in the reaction were optimized for a standardized homogenous enzyme assay using an ADP-Glo kinase/ATPase assay kit. A reaction buffer [(15 mM Tris, pH 7.5), 10 mM MgCl2, 0.01% PluronicF-68, 1 μM paclitaxel, and 30 μg/mL pig microtubules] was prepared. […] The resulting reaction mixture was incubated at room temperature for another 15 min. 5 μL of ADP-Glo reagent and 2.5 μL of the reaction mixture were mixed and the resulting mixture was incubated at room temperature for 40 min. 10 μL of ADP-Glo detection reagent was added and the mixture was incubated at room temperature for 40 min. Luminescence was read using a microplate reader and compared with that of the DMSO group, and then the inhibition percentages and IC50 values of the compounds were calculated.

T1 sequence (Q8NI77 1-467): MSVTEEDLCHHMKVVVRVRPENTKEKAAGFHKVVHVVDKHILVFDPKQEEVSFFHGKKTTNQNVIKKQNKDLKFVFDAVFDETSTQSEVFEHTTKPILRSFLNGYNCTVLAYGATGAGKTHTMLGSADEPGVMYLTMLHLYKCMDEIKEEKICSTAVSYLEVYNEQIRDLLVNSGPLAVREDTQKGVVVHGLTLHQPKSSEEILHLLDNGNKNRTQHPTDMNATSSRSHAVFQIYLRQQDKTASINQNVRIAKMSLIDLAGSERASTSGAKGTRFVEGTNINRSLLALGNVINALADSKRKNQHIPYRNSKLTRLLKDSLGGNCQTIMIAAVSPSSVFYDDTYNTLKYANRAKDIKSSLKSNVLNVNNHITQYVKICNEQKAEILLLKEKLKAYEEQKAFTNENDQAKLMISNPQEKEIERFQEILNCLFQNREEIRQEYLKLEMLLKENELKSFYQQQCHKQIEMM
T1 sequence (P02550 whole entry partner): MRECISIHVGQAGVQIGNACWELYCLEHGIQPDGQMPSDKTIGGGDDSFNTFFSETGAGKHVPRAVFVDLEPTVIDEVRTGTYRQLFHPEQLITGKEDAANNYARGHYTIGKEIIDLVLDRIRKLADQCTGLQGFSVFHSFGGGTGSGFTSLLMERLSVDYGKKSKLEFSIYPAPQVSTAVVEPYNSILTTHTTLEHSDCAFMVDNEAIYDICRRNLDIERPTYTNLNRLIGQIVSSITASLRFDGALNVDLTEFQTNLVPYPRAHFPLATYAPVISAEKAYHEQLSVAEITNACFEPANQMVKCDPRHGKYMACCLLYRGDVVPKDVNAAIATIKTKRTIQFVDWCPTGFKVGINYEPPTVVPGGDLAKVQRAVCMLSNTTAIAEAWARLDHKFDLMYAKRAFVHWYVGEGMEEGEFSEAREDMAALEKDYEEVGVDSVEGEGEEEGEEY
T1 sequence (P02554 whole entry partner): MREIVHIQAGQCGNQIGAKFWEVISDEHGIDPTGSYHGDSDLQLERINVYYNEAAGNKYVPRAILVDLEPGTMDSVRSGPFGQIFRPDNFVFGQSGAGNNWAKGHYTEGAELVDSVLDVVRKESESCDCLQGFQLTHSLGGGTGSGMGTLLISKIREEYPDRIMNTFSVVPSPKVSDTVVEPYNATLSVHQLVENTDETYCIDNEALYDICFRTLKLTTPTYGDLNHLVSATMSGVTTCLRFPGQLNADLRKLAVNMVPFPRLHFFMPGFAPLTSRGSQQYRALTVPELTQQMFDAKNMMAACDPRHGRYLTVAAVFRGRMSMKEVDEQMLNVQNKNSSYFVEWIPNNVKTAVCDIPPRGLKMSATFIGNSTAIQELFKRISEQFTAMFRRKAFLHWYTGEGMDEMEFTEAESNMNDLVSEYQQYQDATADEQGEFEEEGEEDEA

IC50 [nM]	Structure (SMILES)
100 to 500	C[C@@H](CO)NS(=O)(=O)c1ccc(NC(=O)c2ccc([N+](=O)[O-])c(N3CCC(F)(F)CC3)c2)c(N2CCC3(CC2)CC3)c1 [Compound 61]
100 to 500	C[C@H](CO)NS(=O)(=O)c1ccc(NC(=O)c2ccc([N+](=O)[O-])c(N3CCC(F)(F)CC3)c2)c(N2CCC3(CC2)CC3)c1 [Compound 62]
100 to 500	C[C@@H]1CN(c2cc(C(=O)Nc3ccc(S(=O)(=O)N[C@@H](C)CO)cc3N3CCC4(CC3)CC4)ccc2[N+](=O)[O-])CCO1 [Compound 63]
100 to 500	C[C@H](CO)NS(=O)(=O)c1ccc(NC(=O)c2ccc([N+](=O)[O-])c(N3CCO[C@H](C)C3)c2)c(N2CCC3(CC2)CC3)c1 [Compound 64]
≤ 100	C[C@@H]1CN(c2nc(NC(=O)c3ccc(NS(=O)(=O)CCO)cc3N3CCC4(CC3)CC4)ccc2[N+](=O)[O-])CCO1 [Compound 66]
≤ 100	C[C@H]1CN(c2nc(NC(=O)c3ccc(NS(=O)(=O)CCO)cc3N3CCC4(CC3)CC4)ccc2[N+](=O)[O-])CCO1 [Compound 67]
≤ 100	O=C(Nc1ccc([N+](=O)[O-])c(N2CC(F)(F)C2)n1)c1ccc(NS(=O)(=O)CCO)cc1N1CCC2(CC1)CC2 [Compound 68]
≤ 100	O=C(Nc1ccc([N+](=O)[O-])c(OCCC(F)(F)F)n1)c1ccc(NS(=O)(=O)CCO)cc1N1CCC2(CC1)CC2 [Compound 69]
≤ 100	O=C(Nc1ccc([N+](=O)[O-])c(N2CCC3(CC3)C2)n1)c1ccc(NS(=O)(=O)CCO)cc1N1CCC2(CC1)CC2 [Compound 70]
≤ 100	O=C(Nc1ccc([N+](=O)[O-])c(OC2CCC2)n1)c1ccc(NS(=O)(=O)CCO)cc1N1CCC2(CC1)CC2 [Compound 71]
≤ 100	CC1(F)CCN(c2nc(NC(=O)c3ccc(NS(=O)(=O)CCO)cc3N3CCC4(CC3)CC4)ccc2[N+](=O)[O-])C1 (stereo not shown) [Compound 72]
≤ 100	O=C(Nc1ccc([N+](=O)[O-])c(N2CCC(F)CC2)n1)c1ccc(NS(=O)(=O)CCO)cc1N1CCC2(CC1)CC2 [Compound 73]
≤ 100	O=C(Nc1ccc([N+](=O)[O-])c(N2CC3CC3C2)n1)c1ccc(NS(=O)(=O)CCO)cc1N1CCC2(CC1)CC2 (stereo not shown) [Compound 74]
≤ 100	CC(C)(CO)Nc1nc(NC(=O)c2ccc(NS(=O)(=O)CCO)cc2N2CCC3(CC2)CC3)ccc1[N+](=O)[O-] [Compound 75]
≤ 100	O=C(Nc1ccc([N+](=O)[O-])c(N2CCOCC2)n1)c1ccc(NS(=O)(=O)CCO)cc1N1CCC2(CC1)CC2 [Compound 76]
≤ 100	C[C@@H](CO)S(=O)(=O)Nc1ccc(C(=O)Nc2ccc([N+](=O)[O-])c(N3CCC(F)(F)CC3)n2)c(N2CCC3(CC2)CC3)c1 [Compound 77]
≤ 100	C[C@H](CO)S(=O)(=O)Nc1ccc(C(=O)Nc2ccc([N+](=O)[O-])c(N3CCC(F)(F)CC3)n2)c(N2CCC3(CC2)CC3)c1 [Compound 78]
≤ 100	C[C@@H]1CN(c2nc(NC(=O)c3ccc(NS(=O)(=O)[C@@H](C)CO)cc3N3CCC4(CC3)CC4)ccc2[N+](=O)[O-])CCO1 [Compound 79]
≤ 100	C[C@@H]1CN(c2nc(NC(=O)c3ccc(NS(=O)(=O)[C@H](C)CO)cc3N3CCC4(CC3)CC4)ccc2[N+](=O)[O-])CCO1 [Compound 80]
≤ 100	O=C(Nc1ccc([N+](=O)[O-])c(N2CCC(F)(F)CC2)n1)c1ccc(S(=O)(=O)NCCO)cc1N1CCC2(CC1)CC2 [Compound 81]
≤ 100	C[C@@H]1CN(c2nc(NC(=O)c3ccc(S(=O)(=O)NCCO)cc3N3CCC4(CC3)CC4)ccc2[N+](=O)[O-])CCO1 [Compound 82]
≤ 100	C[C@H]1CN(c2nc(NC(=O)c3ccc(S(=O)(=O)NCCO)cc3N3CCC4(CC3)CC4)ccc2[N+](=O)[O-])CCO1 [Compound 83]
≤ 100	O=C(Nc1ccc([N+](=O)[O-])c(N2CC(F)(F)C2)n1)c1ccc(S(=O)(=O)NCCO)cc1N1CCC2(CC1)CC2 [Compound 84]
≤ 100	O=C(Nc1ccc([N+](=O)[O-])c(OCCC(F)(F)F)n1)c1ccc(S(=O)(=O)NCCO)cc1N1CCC2(CC1)CC2 [Compound 85]
≤ 100	O=C(Nc1ccc([N+](=O)[O-])c(N2CCC3(CC3)C2)n1)c1ccc(S(=O)(=O)NCCO)cc1N1CCC2(CC1)CC2 [Compound 86]
≤ 100	O=C(Nc1ccc([N+](=O)[O-])c(OC2CCC2)n1)c1ccc(S(=O)(=O)NCCO)cc1N1CCC2(CC1)CC2 [Compound 87]
≤ 100	CC1(F)CCN(c2nc(NC(=O)c3ccc(S(=O)(=O)NCCO)cc3N3CCC4(CC3)CC4)ccc2[N+](=O)[O-])C1 (stereo not shown) [Compound 88]
≤ 100	O=C(Nc1ccc([N+](=O)[O-])c(N2CCC(F)CC2)n1)c1ccc(S(=O)(=O)NCCO)cc1N1CCC2(CC1)CC2 [Compound 89]

IC50 [nM]	Structure (SMILES)
≤ 100	O=C(Nc1ccc([N+](=O)[O-])c(N2CC3CC3C2)n1)c1ccc(S(=O)(=O)NCCO)cc1N1CCC2(CC1)CC2 (stereo not shown) [Compound 90]
≤ 100	CC(C)(CO)Nc1nc(NC(=O)c2ccc(S(=O)(=O)NCCO)cc2N2CCC3(CC2)CC3)ccc1[N+](=O)[O-] [Compound 91]
≤ 100	O=C(Nc1ccc([N+](=O)[O-])c(N2CCOCC2)n1)c1ccc(S(=O)(=O)NCCO)cc1N1CCC2(CC1)CC2 [Compound 92]
≤ 100	C[C@@H](CO)NS(=O)(=O)c1ccc(C(=O)Nc2ccc([N+](=O)[O-])c(N3CCC(F)(F)CC3)n2)c(N2CCC3(CC2)CC3)c1 [Compound 93]
≤ 100	C[C@H](CO)NS(=O)(=O)c1ccc(C(=O)Nc2ccc([N+](=O)[O-])c(N3CCC(F)(F)CC3)n2)c(N2CCC3(CC2)CC3)c1 [Compound 94]
≤ 100	C[C@@H]1CN(c2nc(NC(=O)c3ccc(S(=O)(=O)N[C@@H](C)CO)cc3N3CCC4(CC3)CC4)ccc2[N+](=O)[O-])CCO1 [Compound 95]
≤ 100	C[C@H](CO)NS(=O)(=O)c1ccc(C(=O)Nc2ccc([N+](=O)[O-])c(N3CCO[C@H](C)C3)n2)c(N2CCC3(CC2)CC3)c1 [Compound 96]
≤ 100	C[C@@H]1CN(c2cc(NC(=O)c3cnc(NS(=O)(=O)CCO)cc3N3CCC4(CC3)CC4)ccc2[N+](=O)[O-])CCO1 [Compound 98]
≤ 100	C[C@H]1CN(c2cc(NC(=O)c3cnc(NS(=O)(=O)CCO)cc3N3CCC4(CC3)CC4)ccc2[N+](=O)[O-])CCO1 [Compound 99]
≤ 100	O=C(Nc1ccc([N+](=O)[O-])c(N2CC(F)(F)C2)c1)c1cnc(NS(=O)(=O)CCO)cc1N1CCC2(CC1)CC2 [Compound 100]
≤ 100	O=C(Nc1ccc([N+](=O)[O-])c(OCCC(F)(F)F)c1)c1cnc(NS(=O)(=O)CCO)cc1N1CCC2(CC1)CC2 [Compound 101]
≤ 100	O=C(Nc1ccc([N+](=O)[O-])c(N2CCC3(CC3)C2)c1)c1cnc(NS(=O)(=O)CCO)cc1N1CCC2(CC1)CC2 [Compound 102]
≤ 100	O=C(Nc1ccc([N+](=O)[O-])c(OC2CCC2)c1)c1cnc(NS(=O)(=O)CCO)cc1N1CCC2(CC1)CC2 [Compound 103]
≤ 100	CC1(F)CCN(c2cc(NC(=O)c3cnc(NS(=O)(=O)CCO)cc3N3CCC4(CC3)CC4)ccc2[N+](=O)[O-])C1 (stereo not shown) [Compound 104]
≤ 100	O=C(Nc1ccc([N+](=O)[O-])c(N2CCC(F)CC2)c1)c1cnc(NS(=O)(=O)CCO)cc1N1CCC2(CC1)CC2 [Compound 105]
≤ 100	O=C(Nc1ccc([N+](=O)[O-])c(N2CC3CC3C2)c1)c1cnc(NS(=O)(=O)CCO)cc1N1CCC2(CC1)CC2 (stereo not shown) [Compound 106]
≤ 100	CC(C)(CO)Nc1cc(NC(=O)c2cnc(NS(=O)(=O)CCO)cc2N2CCC3(CC2)CC3)ccc1[N+](=O)[O-] [Compound 107]
≤ 100	O=C(Nc1ccc([N+](=O)[O-])c(N2CCOCC2)c1)c1cnc(NS(=O)(=O)CCO)cc1N1CCC2(CC1)CC2 [Compound 108]
≤ 100	C[C@@H](CO)S(=O)(=O)Nc1cc(N2CCC3(CC2)CC3)c(C(=O)Nc2ccc([N+](=O)[O-])c(N3CCC(F)(F)CC3)c2)cn1 [Compound 109]
≤ 100	C[C@H](CO)S(=O)(=O)Nc1cc(N2CCC3(CC2)CC3)c(C(=O)Nc2ccc([N+](=O)[O-])c(N3CCC(F)(F)CC3)c2)cn1 [Compound 110]
≤ 100	C[C@@H]1CN(c2cc(NC(=O)c3cnc(NS(=O)(=O)[C@@H](C)CO)cc3N3CCC4(CC3)CC4)ccc2[N+](=O)[O-])CCO1 [Compound 111]
≤ 100	C[C@@H]1CN(c2cc(NC(=O)c3cnc(NS(=O)(=O)[C@H](C)CO)cc3N3CCC4(CC3)CC4)ccc2[N+](=O)[O-])CCO1 [Compound 112]
≤ 100	O=C(Nc1ccc([N+](=O)[O-])c(N2CCC(F)(F)CC2)c1)c1cnc(S(=O)(=O)NCCO)cc1N1CCC2(CC1)CC2 [Compound 113]
≤ 100	C[C@@H]1CN(c2cc(NC(=O)c3cnc(S(=O)(=O)NCCO)cc3N3CCC4(CC3)CC4)ccc2[N+](=O)[O-])CCO1 [Compound 114]
≤ 100	C[C@H]1CN(c2cc(NC(=O)c3cnc(S(=O)(=O)NCCO)cc3N3CCC4(CC3)CC4)ccc2[N+](=O)[O-])CCO1 [Compound 115]
≤ 100	O=C(Nc1ccc([N+](=O)[O-])c(N2CC(F)(F)C2)c1)c1cnc(S(=O)(=O)NCCO)cc1N1CCC2(CC1)CC2 [Compound 116]
≤ 100	O=C(Nc1ccc([N+](=O)[O-])c(OCCC(F)(F)F)c1)c1cnc(S(=O)(=O)NCCO)cc1N1CCC2(CC1)CC2 [Compound 117]
